In a melting point compilation (Tetko et al.; mined from patent text by program, amines drawn as free bases though some values may be those of a salt):

SMILES | melting point [°C]
CC1CCN(c2ccc(-c3nc(C(=O)Nc4nccs4)c(-c4ccc(Cl)cc4)[nH]3)cc2)CC1 | > 250
Cn1c(NCc2cccc(NC(=O)C=Cc3ccccc3Cl)c2)nc2ccccc21 | 188 to 191
COc1ccc(-c2c(C(N)=O)n(C)c(=O)c3ncccc23)cc1 | > 310
Cc1cc(C)n(-c2nc(Nc3cccc(Cl)c3)c3ccccc3n2)n1 | 259 to 262
O=C(c1c(F)cccc1F)N1COCN(c2ccc(SC(F)(C(F)(F)F)C(F)(F)F)cc2F)C1=O | 85 to 86
OC1CSC(Oc2cncc(-c3ccnc(F)c3)c2)C(O)C1O (stereo unspecified) | 208
OCc1ccc(OCc2ccccc2)cc1OCc1ccccc1 | 84 to 85
CC(CSSc1nc2ccccc2s1)SSc1nc2ccccc2s1 (stereo unspecified) | 63 to 65
CNc1cc(-c2c(-c3ccc(F)cc3)ccn2C2CCNCC2)ccn1 | 165 to 167
c1ccc(-c2cnc3nncn3c2)cc1 | 231
O=C(OC1C2OCC(O2)C(OCc2ccccc2)C1OCc1ccccc1)c1ccccc1 (stereo unspecified) | 111 to 113
CCCCC1c2ccccc2-c2cc(Br)ccc2N1S(=O)(=O)c1ccc(O)cc1 (stereo unspecified) | 178 to 180
Cc1cccc(N2C(=S)SCC2(C)O)n1 (stereo unspecified) | 150 to 153
Cc1nnc(CO)n1-c1ccc(Cl)cc1C(=O)c1ccccc1Cl | 194 to 195
Clc1ccc(-c2nc3n(c2Cl)CCCC3)c(Cl)c1 | 99 to 101
O=C(O)CC1(c2ccc(Cl)c(Cl)c2)CCC(=O)NC1=O (stereo unspecified) | 203
CCCCCCCCCCCC(=O)c1ccc(-c2ccc(OCC(C)OC(=O)CCCCCC)c(Cl)c2)cc1 (stereo unspecified) | 43.2 to 43.4
Cc1ccnc(-n2cc(C#N)ccc2=O)c1 | 166 to 168
Cc1oc(-c2ccccc2)nc1CCOc1ccc(COc2nn(C)cc2CC(=O)O)cc1 | 148 to 149
O=c1n(F)nc(SC(Cl)Cl)n1-c1ccccc1 | 128 to 130
COc1ccc(-c2nc(C)c(C(N)=O)s2)cc1 | 180
CCCn1c(=O)c2[nH]c(/C=C/c3ccc(OC)c(OC)c3)nc2n(CCC)c1=O | 196
COC(=O)c1cc(C)sc1NC(=O)Cc1ccccc1 | 107 to 109
CCOC(=O)c1c(N2CCN(C)CC2)c2ccccc2n(C)c1=O | 144 to 148

SMILES | melting point [°C]
CCc1cc(CCc2nc3ccccc3o2)c(=O)[nH]c1COCc1ccccc1 | 140 to 142
CCCCCCCNC(=O)Nc1ccc(O)cc1C(=O)NCC1CCN(C(c2ccccc2)c2ccccc2)CC1 | 165 to 167
O=C1Nc2ccc(F)c(F)c2C1c1ncnc2nn(C3CCCC3)cc12 (stereo unspecified) | 280 to 284
CCc1c(-c2ccccc2)c2c(COCCCN3CCCCC3)cc3c(O)ccc1n32 | 93 to 99
Nc1ccc(CCN2CCN(c3ccc(N)cc3Cl)CC2)cc1 | 109 to 112
CCOC(=O)C(C)(C)Oc1ccc(C#CC(=O)c2ccc(Cl)cc2)cc1 | 68 to 70
CCOC(=O)c1c[nH]nc1NCc1ccc(OC)c(OC2CCCC2)c1 | 102 to 104
COCC(C1CC1)n1cc(Cl)nc(Nc2cc(C)c(OC(F)F)nc2C)c1=O (stereo unspecified) | 103 to 104
Cc1cccc(-c2sc(N)nc2-c2ccnc(-c3ccc(OC(F)(F)F)cc3)c2)n1 | 232
COc1ccc(C=CC(=O)O)cc1-c1cc2c(cc1OCCCCCC(N)=O)C(C)(C)CCC2(C)C | 133 to 135
Cc1cc(OCc2ccccc2)cc(=O)o1 | 90 to 91
CC(C)(C)OC(=O)n1nnc(-c2ccccc2)c1I | 87 to 90
CC(C)CCNC(=O)c1ccccc1-c1ccccc1CNS(=O)(=O)c1ccc(F)cc1 | 149
Cc1cc(C)nc(-n2c(C(=O)Nc3ccc4c(c3)nc(C)n4C)cc3cc(F)ccc32)c1 | 130 to 140
CC1=C(c2ccccc2)C(=O)N(C(C)(C)C(=O)C2CCCCC2)CO1 | 94
O=C([O-])C12CC[N+](Cc3ccc4c(c3)Nc3nccnc3S4)(CC1)CC2 | 229 to 230
O=C1O[C@@H](Cn2ccnn2)CN1c1ccc(-c2ccc(C3=NO[C@H](Cn4ccnc4)C3)nc2)c(F)c1 | 239 to 242
COC(=O)Nc1nc(OC)cc(OC)n1 | 81 to 83
CC(C)(C)OC(=O)Nc1cc2nc(-c3ccccc3)nn2cc1F | 180 to 188
CC(C)=CCn1c(N(C)C[C@@H](C)N)nc2c1c(=O)n(C)c(=O)n2C | 101 to 104
CCCCCOc1cc(C(=O)O)cc(S(N)(=O)=O)c1-c1ccccc1 | 152 to 155
O=[N+]([O-])c1ccc(C(O)c2ccccn2)c(OCC(F)(F)F)c1 (stereo unspecified) | 119 to 123
O=Cc1ccc2cc(C=O)ccc2c1 | 173 to 174
CC(C)=Nn1c(S)nnc1-n1cccn1 | 132 to 138

SMILES | melting point [°C]
COc1cc2c(cc1Nc1ncc(Cl)c(Nc3ccccc3S(=O)(=O)N(C)C)n1)CCN(CCO)CC2 | 150 to 152
NNC(=O)c1cccc(Cc2c[nH]cn2)c1O | 190
CC(=NO)C(C)(C)NN(C)CCNC(C)(C)C(Cn1ccnc1[N+](=O)[O-])=NO | 132 to 134
O=C(C=Cc1cccc(F)c1F)c1cnc2sc3c(n12)CCCCC3 | 193 to 195
O=C(O)CCc1cn(Cc2cccc(C(=O)NCc3ccc(C(F)(F)F)cc3)c2)nc1-c1ccccc1 | 165 to 166
CSc1ncncc1C1c2cc(C#N)ccc2CC1(C)C (stereo unspecified) | 157 to 158
CC(=O)Oc1cccc(Br)c1 | 33 to 40
Oc1ccc(Nc2nc(NCc3ccco3)nc(Nc3ccc4[nH]ccc4c3)n2)cc1 | 258 to 260
C=CCOc1cc(C(=O)OCC)nc2ccccc12 | 71 to 72
O=C(NC(Cc1ccccc1)C1CC(Cc2ccccc2)=NO1)c1ccccc1 (stereo unspecified) | 141 to 142
COCCCn1nnnc1-c1cc(-c2cccc(C(F)(F)F)c2)c(O)cc1O | 144 to 182
O=C(NCC(Cc1ccccc1)C(=O)Nc1n[nH]c(=S)s1)OCc1ccccc1 (stereo unspecified) | 88 to 90
C#CCC(O)(Cn1cncn1)c1ccc(Oc2ccc(Cl)cc2)cc1Cl (stereo unspecified) | 124
O=C1OC[C@@H](CF)N1c1nc(-c2ccc(Br)cc2)cs1 | 148 to 150
CNN=C1CCC(C)n2c1ncc(C(=O)O)c2=O (stereo unspecified) | 219 to 220
COc1ccc2c(c1)OCC1CN(C(=O)c3cccnc3)N=C21 (stereo unspecified) | 145 to 147
N#Cc1cc(N)ccc1N1CCOCC1 | 147 to 148
O=C(CN1CCN(CCCC(c2ccc(F)cc2)c2ccc(F)cc2)C(C(=O)O)C1)Nc1c(Cl)cccc1Cl (stereo unspecified) | 204
O=C(O)CCc1ccccc1Cc1ccc(Cl)cc1 | 107 to 109
CCCCCCCCCCCCCCCCCCS(=O)(=O)c1cc2ccccc2c(N=Nc2ccc(OC)cc2)c1O | 117 to 119
CC(C)C(=O)Nc1c(OCc2ccccc2)cc(Br)cc1[N+](=O)[O-] | 197 to 198
CCCc1nc2c(N)nc3ccccc3c2n1CC(OCC)OCC | 148 to 150
C=C1CC(C(O)=Nc2cc(Cl)cc(Cl)c2)C1C(=O)O (stereo unspecified) | 119
